Laboratory results taken from patent US12077503B2, “Substituted cyclic amides and their use as herbicides” (FMC CORPORATION, priority 2015, dated 2024).

What was measured:
Format in all cases: in vivo
[1] = tested on: barnyardgrass (Echinochloa crus-galli); test: Test G Post-Emergence Protocol; details: Echinochloa crus-galli, post-emergence, 312 h, read-out: Barnyardgrass damage rating; for pest or weed control at 15.625 g/ha: 15.625 g ai/ha, evaluated after 13 days (100=total damage to plant; 0=no damage to plant); for pest or weed control at 62.5 g/ha: 62.5 g ai/ha; for pest or weed control at 62.5 g/ha / pest or weed control at 250 g/ha: evaluated after 13 days, 100=total damage to plant, 0=no damage to plant; for pest or weed control at 250 g/ha: 250 g ai/ha
Outline: (§1)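 Foliar application was made 8 days after sowing, using an aqueous spray of the active in acetone/water (50:50) with 0.5% Tween 20, at doses of 15.625, 62.5 or 250 g/ha. Injury was assessed 13 days later, where 100 meant the plant was fully damaged.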

[2] = tested on: velvetleaf (Abutilon theophrasti); test: Test G Post-Emergence Protocol; details: Abutilon theophrasti, post-emergence, 312 h, read-out: Velvetleaf damage rating; for pest or weed control at 15.625 g/ha: 15.625 g ai/ha, evaluated after 13 days (100=total damage to plant; 0=no damage to plant); for pest or weed control at 62.5 g/ha: 62.5 g ai/ha; for pest or weed control at 62.5 g/ha / pest or weed control at 250 g/ha: evaluated after 13 days, 100=total damage to plant, 0=no damage to plant; for pest or weed control at 250 g/ha: 250 g ai/ha
Outline: as §1

corn (Zea mays) [3] = test: Test G Post-Emergence Protocol; details: Zea mays, post-emergence, 312 h, read-out: Corn damage rating; for plant injury at 15.625 g/ha: 15.625 g ai/ha, evaluated after 13 days (100=total damage to plant; 0=no damage to plant); for plant injury at 62.5 g/ha: 62.5 g ai/ha; for plant injury at 62.5 g/ha / plant injury at 250 g/ha: evaluated after 13 days, 100=total damage to plant, 0=no damage to plant; for plant injury at 250 g/ha: 250 g ai/ha
Outline: as §1

[4] = tested on: giant foxtail (Setaria faberi); test: Test G Post-Emergence Protocol; details: Setaria faberi, post-emergence, 312 h, read-out: Foxtail, Giant damage rating; for pest or weed control at 15.625 g/ha: 15.625 g ai/ha, evaluated after 13 days (100=total damage to plant; 0=no damage to plant); for pest or weed control at 62.5 g/ha: 62.5 g ai/ha; for pest or weed control at 62.5 g/ha / pest or weed control at 250 g/ha: evaluated after 13 days, 100=total damage to plant, 0=no damage to plant; for pest or weed control at 250 g/ha: 250 g ai/ha
Outline: as §1

[5] = tested on: ivy-leaved morning glory (Ipomoea hederacea); test: Test G Post-Emergence Protocol; details: Ipomoea, post-emergence, 312 h, read-out: Morningglory, Ivy-leaved damage rating; for pest or weed control at 15.625 g/ha: 15.625 g ai/ha, evaluated after 13 days (100=total damage to plant; 0=no damage to plant); for pest or weed control at 62.5 g/ha: 62.5 g ai/ha; for pest or weed control at 62.5 g/ha / pest or weed control at 250 g/ha: evaluated after 13 days, 100=total damage to plant, 0=no damage to plant; for pest or weed control at 250 g/ha: 250 g ai/ha
Outline: as §1

[6] = tested on: redroot pigweed (Amaranthus retroflexus); test: Test G Post-Emergence Protocol; details: Amaranthus retroflexus, post-emergence, 312 h, read-out: Pigweed, Redroot damage rating; for pest or weed control at 15.625 g/ha: 15.625 g ai/ha, evaluated after 13 days (100=total damage to plant; 0=no damage to plant); for pest or weed control at 62.5 g/ha: 62.5 g ai/ha; for pest or weed control at 62.5 g/ha / pest or weed control at 250 g/ha: evaluated after 13 days, 100=total damage to plant, 0=no damage to plant; for pest or weed control at 250 g/ha: 250 g ai/ha
Outline: as §1

[7] = tested on: barnyardgrass (Echinochloa crus-galli); test: Test G Pre-Emergence Protocol; details: Echinochloa crus-galli, pre-emergence, 312 h, evaluated after 13 days; for pest or weed control at 15.625 g/ha: 15.625 g ai/ha; for pest or weed control at 15.625 g/ha / pest or weed control at 250 g/ha: read-out: Barnyardgrass damage rating (100=total damage to plant; 0=no damage to plant); for pest or weed control at 62.5 g/ha: 62.5 g ai/ha, 100=total damage to plant, 0=no damage to plant, read-out: Barnyardgrass damage rating; for pest or weed control at 250 g/ha: 250 g ai/ha
Outline: (§2)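 Pots of seeds in standard soil were grown for one day in a glasshouse (24/16 °C day/night, 14 h light, 65% humidity), then sprayed with compound in acetone/water 50:50 with 0.5% Tween 20 at 15.625, 62.5 or 250 g/ha. Damage was scored after 13 days on a 0 (none) to 100 (total) scale.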

[8] = tested on: velvetleaf (Abutilon theophrasti); test: Test G Pre-Emergence Protocol; details: Abutilon theophrasti, pre-emergence, 312 h, evaluated after 13 days; for pest or weed control at 15.625 g/ha: 15.625 g ai/ha; for pest or weed control at 15.625 g/ha / pest or weed control at 250 g/ha: read-out: Velvetleaf damage rating (100=total damage to plant; 0=no damage to plant); for pest or weed control at 62.5 g/ha: 62.5 g ai/ha, 100=total damage to plant, 0=no damage to plant, read-out: Velvetleaf damage rating; for pest or weed control at 250 g/ha: 250 g ai/ha
Outline: as §2

corn (Zea mays) [9] = test: Test G Pre-Emergence Protocol; details: Zea mays, pre-emergence, 312 h, evaluated after 13 days; for plant injury at 15.625 g/ha: 15.625 g ai/ha; for plant injury at 15.625 g/ha / plant injury at 250 g/ha: read-out: Corn damage rating (100=total damage to plant; 0=no damage to plant); for plant injury at 62.5 g/ha: 62.5 g ai/ha, 100=total damage to plant, 0=no damage to plant, read-out: Corn damage rating; for plant injury at 250 g/ha: 250 g ai/ha
Outline: as §2

[10] = tested on: giant foxtail (Setaria faberi); test: Test G Pre-Emergence Protocol; details: Setaria faberi, pre-emergence, 312 h, evaluated after 13 days; for pest or weed control at 15.625 g/ha: 15.625 g ai/ha; for pest or weed control at 15.625 g/ha / pest or weed control at 250 g/ha: read-out: Foxtail, Giant damage rating (100=total damage to plant; 0=no damage to plant); for pest or weed control at 62.5 g/ha: 62.5 g ai/ha, 100=total damage to plant, 0=no damage to plant, read-out: Foxtail, Giant damage rating; for pest or weed control at 250 g/ha: 250 g ai/ha
Outline: as §2

[11] = tested on: ivy-leaved morning glory (Ipomoea hederacea); test: Test G Pre-Emergence Protocol; details: Ipomoea, pre-emergence, 312 h, evaluated after 13 days; for pest or weed control at 15.625 g/ha: 15.625 g ai/ha; for pest or weed control at 15.625 g/ha / pest or weed control at 250 g/ha: read-out: Morningglory, Ivy-leaved damage rating (100=total damage to plant; 0=no damage to plant); for pest or weed control at 62.5 g/ha: 62.5 g ai/ha, 100=total damage to plant, 0=no damage to plant, read-out: Morningglory, Ivy-leaved damage rating; for pest or weed control at 250 g/ha: 250 g ai/ha
Outline: as §2

[12] = tested on: redroot pigweed (Amaranthus retroflexus); test: Test G Pre-Emergence Protocol; details: Amaranthus retroflexus, pre-emergence, 312 h, evaluated after 13 days; for pest or weed control at 15.625 g/ha: 15.625 g ai/ha; for pest or weed control at 15.625 g/ha / pest or weed control at 250 g/ha: read-out: Pigweed, Redroot damage rating (100=total damage to plant; 0=no damage to plant); for pest or weed control at 62.5 g/ha: 62.5 g ai/ha, 100=total damage to plant, 0=no damage to plant, read-out: Pigweed, Redroot damage rating; for pest or weed control at 250 g/ha: 250 g ai/ha
Outline: as §2

Cc1cc([C@H]2CN(C)C(=O)[C@@H]2C(=O)Nc2cccc(F)c2F)cnn1 (racemic) [Compound 1662]
0%: pest or weed control at 15.625 g/ha [1] | pest or weed control at 62.5 g/ha [1] | pest or weed control at 250 g/ha [1] | pest or weed control at 15.625 g/ha [2] | pest or weed control at 62.5 g/ha [2] | pest or weed control at 250 g/ha [2] | plant injury at 15.625 g/ha (corn (Zea mays) [3]) | plant injury at 62.5 g/ha (corn (Zea mays) [3]) | plant injury at 250 g/ha (corn (Zea mays) [3]) | pest or weed control at 15.625 g/ha [4] | pest or weed control at 62.5 g/ha [4] | pest or weed control at 250 g/ha [4] | pest or weed control at 15.625 g/ha [5] | pest or weed control at 62.5 g/ha [5] | pest or weed control at 250 g/ha [5] | pest or weed control at 15.625 g/ha [6] | pest or weed control at 62.5 g/ha [6] | pest or weed control at 250 g/ha [6] | pest or weed control at 15.625 g/ha [7] | pest or weed control at 62.5 g/ha [7] | pest or weed control at 250 g/ha [7] | pest or weed control at 15.625 g/ha [8] | pest or weed control at 62.5 g/ha [8] | pest or weed control at 250 g/ha [8] | plant injury at 15.625 g/ha (corn (Zea mays) [9]) | plant injury at 62.5 g/ha (corn (Zea mays) [9]) | plant injury at 250 g/ha (corn (Zea mays) [9]) | pest or weed control at 15.625 g/ha [10] | pest or weed control at 62.5 g/ha [10] | pest or weed control at 250 g/ha [10] | pest or weed control at 15.625 g/ha [11] | pest or weed control at 62.5 g/ha [11] | pest or weed control at 250 g/ha [11] | pest or weed control at 15.625 g/ha [12] | pest or weed control at 62.5 g/ha [12] | pest or weed control at 250 g/ha [12]

CN1C[C@H](c2ccc(C(F)(F)F)cc2)[C@@H](C(=O)Nc2cccc3c2S(=O)(=O)CC3)C1=O (racemic) [Compound 1737]
0%: pest or weed control at 15.625 g/ha [1] | pest or weed control at 62.5 g/ha [1] | pest or weed control at 250 g/ha [1] | pest or weed control at 15.625 g/ha [2] | pest or weed control at 62.5 g/ha [2] | pest or weed control at 250 g/ha [2] | plant injury at 15.625 g/ha (corn (Zea mays) [3]) | plant injury at 62.5 g/ha (corn (Zea mays) [3]) | plant injury at 250 g/ha (corn (Zea mays) [3]) | pest or weed control at 15.625 g/ha [4] | pest or weed control at 62.5 g/ha [4] | pest or weed control at 250 g/ha [4] | pest or weed control at 15.625 g/ha [5] | pest or weed control at 62.5 g/ha [5] | pest or weed control at 250 g/ha [5] | pest or weed control at 15.625 g/ha [6] | pest or weed control at 62.5 g/ha [6] | pest or weed control at 250 g/ha [6] | pest or weed control at 15.625 g/ha [7] | pest or weed control at 62.5 g/ha [7] | pest or weed control at 250 g/ha [7] | pest or weed control at 15.625 g/ha [8] | pest or weed control at 62.5 g/ha [8] | pest or weed control at 250 g/ha [8] | plant injury at 15.625 g/ha (corn (Zea mays) [9]) | plant injury at 62.5 g/ha (corn (Zea mays) [9]) | plant injury at 250 g/ha (corn (Zea mays) [9]) | pest or weed control at 15.625 g/ha [10] | pest or weed control at 62.5 g/ha [10] | pest or weed control at 250 g/ha [10] | pest or weed control at 15.625 g/ha [11] | pest or weed control at 62.5 g/ha [11] | pest or weed control at 250 g/ha [11] | pest or weed control at 15.625 g/ha [12] | pest or weed control at 62.5 g/ha [12] | pest or weed control at 250 g/ha [12]
